Where no end group is shown, it is not given here.

In general, Kd refers to a measure of binding affinity in units of concentration.

Assay [1] deals with SARS-CoV-2 spike trimer protein (Severe acute respiratory syndrome coronavirus 2, UniProt P0DTC2). Description: biochemical. Format: binding.
Assay [2] has as its target SARS-CoV-2 spike monomer protein (Severe acute respiratory syndrome coronavirus 2, UniProt P0DTC2). The assay can be described thus: biochemical. Format: binding.

As to NFWISPKLAFALGGGS [Spep-1], the dissociation constant (Kd) in assay [1] came out at 1.7 nM; in assay [2] it was 2.14 nM.

Source of the values: publication PMC9254439 (Virologica Sinica, 2022).
